Assay results taken from ChEMBL document CHEMBL6074643, “Harnessing dual-mode RIPK1 ligands for cross-species anti-necroptosis inhibitor compounds” (Bioorg Med Chem Lett, 2024).
pKi: −log10 of the molar value. The source made the active and inactive calls. The rule behind the calls is not given here.

Columns and labels:
[1] = Intrinsic clearance in human liver microsomes measured per mg protein; assay type: ADME, Microsome; settings: read-out: CLH
[2] = biological target: T1, Receptor-interacting serine/threonine-protein kinase 1 (Homo sapiens, UniProt Q13546); assay: Inhibition of human RIPK1 by ADP-Glo kinase assay
T1 sequence (Q13546 whole entry): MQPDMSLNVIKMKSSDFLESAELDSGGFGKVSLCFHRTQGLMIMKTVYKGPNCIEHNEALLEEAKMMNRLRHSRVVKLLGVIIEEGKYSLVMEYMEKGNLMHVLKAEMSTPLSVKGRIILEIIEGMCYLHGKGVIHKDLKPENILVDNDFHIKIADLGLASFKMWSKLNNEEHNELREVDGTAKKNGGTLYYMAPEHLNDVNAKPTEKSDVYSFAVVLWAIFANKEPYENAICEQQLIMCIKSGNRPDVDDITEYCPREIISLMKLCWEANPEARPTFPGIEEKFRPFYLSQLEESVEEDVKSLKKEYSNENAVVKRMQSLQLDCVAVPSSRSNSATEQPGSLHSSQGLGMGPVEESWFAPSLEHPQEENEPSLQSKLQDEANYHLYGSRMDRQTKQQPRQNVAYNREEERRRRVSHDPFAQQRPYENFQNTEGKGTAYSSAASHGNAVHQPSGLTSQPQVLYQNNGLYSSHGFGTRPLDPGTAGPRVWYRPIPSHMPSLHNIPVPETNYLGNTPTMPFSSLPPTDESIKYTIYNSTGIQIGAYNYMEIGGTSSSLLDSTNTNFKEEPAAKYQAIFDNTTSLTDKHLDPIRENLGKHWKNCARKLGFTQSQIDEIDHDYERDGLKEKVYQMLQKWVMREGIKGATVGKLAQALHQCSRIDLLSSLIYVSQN

[3] = Intrinsic clearance in mouse liver microsomes measured per mg protein; assay type: ADME, Microsome; settings: read-out: CLH
[4] = Plasma concentration in non-fasted NMRI mouse at 10 mg/kg, po measured after 0.5 hrs by HPLC-MS analysis; assay type: ADME, organism-based
Mus musculus = assay: In vivo inhibition of RIPK1 in TNF-alpha-induced acute hypothermia NMRI mouse model assessed as decrease in TNF-alpha-induced severe core body temperature loss at 30 mg/kg, po administered 15 mins prior to TNF-alpha challenge and measured at 90 mins interval for 6 hrs; assay type: functional, organism-based; settings: time 375.0 min
[5] = Plasma concentration in non-fasted NMRI mouse at 10 mg/kg, po measured after 2 hrs by HPLC-MS analysis; assay type: ADME, organism-based

Row | microsomal CLint [1] | pKi [2] | microsomal CLint [3] | concentration at 0.5 h [4] | concentration at 2 h [5] | SMILES | inhibition (Mus musculus)
1 | 6.6 µL/min/mg | 6.60 | 29.4 µL/min/mg | – | – | CN1C(=O)C(C(=O)Nc2cn(Cc3ccccc3)cn2)CCc2cc(C#CC(C)(C)O)ccc21 (configuration not stated) | –
2 | 32.7 µL/min/mg | 6.40 | 202 µL/min/mg | – | – | CN1C(=O)[C@H](C(=O)Nc2cn(Cc3ccccc3)cn2)CCc2ccc(C#CC(C)(C)O)cc21 | –
3 | – | 8.70 | – | – | – | CN1C(=O)[C@@H](NC(=O)c2nnc(Cc3ccccc3)[nH]2)COc2cccnc21 [ECLITASERTIB] | –
4 | 7.7 µL/min/mg | 7.56 | 29 µL/min/mg | – | – | CC(=O)NC(C)(C)C#Cc1ccc2c(c1)N(C)C(=O)C(C(=O)Nc1cn(Cc3ccccc3)cn1)CC2 (configuration not stated) | –
5 | 99 µL/min/mg | 7.12 | 693 µL/min/mg | – | – | CC(C)C#Cc1ccc2c(c1)N(C)C(=O)C(C(=O)Nc1cn(Cc3ccccc3)cn1)CC2 (configuration not stated) | –
6 | 124 µL/min/mg | 7.55 | 238 µL/min/mg | – | – | CN1C(=O)C(C(=O)Nc2cn(Cc3ccccc3)cn2)CCc2ccc(C#CC3(C)COC3)cc21 (configuration not stated) | –
7 | 18.2 µL/min/mg | 6.72 | 42.2 µL/min/mg | – | – | CN1C(=O)C(C(=O)Nc2cn(Cc3ccccc3)cn2)CCc2cc(C#CC3(O)COC3)ccc21 (configuration not stated) | –
8 | 7.6 µL/min/mg | 7.94 | 33 µL/min/mg | 1340 nM | 329 nM | CN1C(=O)[C@@H](C(=O)Nc2cn(Cc3ccccc3)cn2)CCc2ccc(C#CC(C)(C)O)cc21 | Active
9 | 194 µL/min/mg | 7.59 | 210 µL/min/mg | – | – | COC(C)(C)C#Cc1ccc2c(c1)N(C)C(=O)C(C(=O)Nc1cn(Cc3ccccc3)cn1)CC2 (configuration not stated) | –
10 | 75.7 µL/min/mg | 7.06 | 211 µL/min/mg | – | – | CN1C(=O)C(C(=O)Nc2cn(Cc3ccccc3)cn2)CCc2ccc(Br)cc21 (configuration not stated) | –
11 | 66.5 µL/min/mg | 7.54 | 300 µL/min/mg | – | – | CN1C(=O)C(C(=O)Nc2cn(Cc3ccccc3)cn2)CCc2ccc(C#CC3CC3)cc21 (configuration not stated) | –
12 | 31.1 µL/min/mg | 6.44 | 176 µL/min/mg | – | – | CN1C(=O)C(C(=O)Nc2cn(Cc3ccccc3)cn2)CCc2cc(Br)ccc21 (configuration not stated) | –
13 | 44.4 µL/min/mg | 7.42 | 128 µL/min/mg | – | – | CN1C(=O)C(C(=O)Nc2cn(Cc3ccccc3)cn2)CCc2ccc(C#CC3(O)COC3)cc21 (configuration not stated) | –
14 | 26.5 µL/min/mg | 7.23 | 158 µL/min/mg | – | – | CN1C(=O)C(C(=O)Nc2cn(Cc3ccccc3)cn2)CCc2ccc(C#CC(C)(C)O)cc21 (racemic) | –
15 | 21.1 µL/min/mg | 7.18 | 50.8 µL/min/mg | – | – | CN1C(=O)C(C(=O)Nc2cn(Cc3ccccc3)cn2)CCc2ccc(C#CC(C)(C)N)cc21 (configuration not stated) | –
16 | 105 µL/min/mg | 7.45 | 312 µL/min/mg | – | – | CC#Cc1ccc2c(c1)N(C)C(=O)C(C(=O)Nc1cn(Cc3ccccc3)cn1)CC2 (configuration not stated) | –
17 | 106 µL/min/mg | 7.65 | 234 µL/min/mg | – | – | CN1C(=O)C(C(=O)Nc2cn(Cc3ccccc3)cn2)CCc2ccc(C#CC3CCOCC3)cc21 (configuration not stated) | –
